Data set [1] relates to 4T1 tumors. As to the kind of experiment: TIL analysis of 4T1 tumors after docetaxel and 01BSUR. The class given is in vivo, mouse. As for the experimental part:
(§1) Female Balb/c mice with 4T1 tumors implanted subcutaneously (s.c.) on the right flank were treated 8 and 15 days post-tumor implant initiating when the tumors reached about 100 mm^3 with the isotype antibody, docetaxel, 01BSUR, or a combination of docetaxel and 01BSUR. […] 5 days after the first dose, tumors were harvested and analyzed for changes to the infiltrating immune cell populations. This was done again at the end point of the study, 4 days after the second dose.

The test system of data set [2] is 4T1 tumors. As to the kind of experiment: 4T1 tumors treated with 01BSUR and docetaxel, tumor burden. The class given is in vivo, mouse. To be noted: 4T1 s.c., treated days 8 and 15 post implant. On the procedure:
FIG. 16. Mice were implanted with 4T1 cells sc and treated with the indicated treatments on days 8 and 15 post tumor implant. There were 10 mice in each group.
as §1

Another data set has as its system LL2. As to the kind of experiment: Anti-IL-1β in combination with docetaxel in aggressive lung model (LL2). The class given is in vivo, mouse. To be noted: LL2, FIG. 15A.
Another data set relates to bone vasculature. As to the kind of experiment: Bone microvasculature after IL-1 blockade in mice (CD34 staining, ELISA for endothelin 1 and VEGF). The class given is in vivo, mouse. To be noted: for average length of CD34+ blood vessels in trabecular bone: IL-1Ra in BALB/c nude mice, canakinumab in C57BL/6 mice; for average length of CD34+ blood vessels in trabecular bone / endothelin 1 concentration (ELISA) vs control: p<0.01; for VEGF concentration (ELISA) vs control / endothelin 1 concentration (ELISA) vs control: bone marrow; for VEGF concentration (ELISA) vs control: IL-1R antagonist p<0.01, canakinumab p<0.001. On the procedure: FIG. 7. IL-1β in the bone microenvironment stimulates expansion of the bone metastatic niche. Effects of adding 40 pg/ml or 5 ng/ml recombinant IL-1β to MDA-MB-231 or T47D breast cancer cells is shown in (a) and effects on adding 20 pg/ml, 40 pg/ml or 5 ng/ml IL-1B on proliferation of HS5, bone marrow, or OB1, osteoblasts, are shown in b) and c) respectively. (d) IL-1 driven alterations to the bone vasculature was measured following CD34 staining in the trabecular region of the tibiae from 10-12-week old female IL-1R1 knockout mice. […] Data are shown as mean+/−SEM, *=P<0.01, **=P<0.001, ***=P<0.0001.
FIG. 8. Suppression of IL-1 signalling affects bone integrity and vasculature. […] Data shown are mean+/−SEM, *=P<0.01, **=P<0.001, ***=P<0.0001 compared with control.
(§2) Tumor cells, serum, and bone were subsequently resected for downstream analysis.
(An ELISA detects its analyte on a solid surface through an enzyme-linked reagent.)

Data set [3] relates to MDA-MB-231Luc2-TdTomato cells. Nature of the data set: Spontaneous human breast cancer metastasis to human bone implants in NOD SCID mice. The class given is in vivo, mouse. To be noted: for size of bone metastases vs control group: FIG. 4a; for mice with metastasis detected in human bone implants: n=10/group, IL-1Ra 1 mg/kg daily, canakinumab 10 mg/kg s.c. every 14 days from day 7, control 7 out of 10; for tumor cells counted in whole blood: placebo 108 tumor cells/ml. As for the experimental part:
FIG. 4. Pharmacological blockade of IL-1β inhibits spontaneous metastasis to human bone in vivo. Female NOD-SCID mice bearing two 0.5 cm^3 pieces of human femoral bone received intra-mammary injections of MDA-MB-231Luc2-TdTomato cells. […] All animals were culled 35 days following tumour cell injection. Effects on bone metastases (a) were assessed in vivo and immediately post-mortem by luciferase imaging and confirmed ex vivo on histological sections. Data are shown as numbers of photons per second emitted 2 minutes following sub-cutaneous injection of D-luciferin. Effects on numbers of tumour cells detected in the circulation are shown in (b). *=P<0.01, **=P<0.001, ***=P<0.0001.
To model human breast cancer metastasis to human bone implants two human bone discs were implanted subcutaneously into 10-week old female NOD SCID mice (n=10/group) under isofluorane anaesthetic. Mice received an injection of 0.003 mg vetergesic and Septrin was added to the drinking water for 1 week following bone implantation. Mice were left for 4 weeks before injecting 1×10^5 MDA-MB-231 Luc2-TdTomato, MCF7 Luc2 or T47D Luc2 cells in 20% Martigel/79% PBS/1% […] into the two hind mammary fat pads. Primary tumor growth and development of metastases was monitored weekly using an IVIS […] system (Caliper Life Sciences) following sub-cutaneous injection of 30 mg/ml D-luciferin (Invitrogen). On termination of experiments mammary tumors, circulating tumor cells, serum and bone metastases were resected. RNA was processed for downstream analysis by real time PCR, and cell lysates were taken for protein analysis and whole tissue for histology as previously described (Nutter et al., 2014; Ottewell et al., 2014a).
as §2
Whole blood was centrifuged at 10,000×g for 5 minutes and the serum removed for ELISA assays. The cell pellet was re-suspended in 5 ml of FSM lysis solution (Sigma-Aldrich, Pool, UK) to lyse red blood cells. Remaining cells were re-pelleted, washed 3× in PBS and re-suspended in a solution of PBS/10% FCS. Samples from 10 mice per group were pooled prior to isolation of TdTomato positive tumor cells using a MoFlow High performance cell sorter (Beckman Coulter, Cambridge UK) with the […] laser line from a Coherent I-90C tenable argon ion (Coherent, Santa Clara, Calif.). TdTomato fluorescence was detected by a 555LP dichroic long pass and a 580/30 nm band pass filter. Acquisition and analysis of cells was performed using Summit 4.3 software. Following sorting cells were immediately placed in RNA protect cell reagent (Ambion, Paisley, Renfrew, UK) and stored at −80° C. before RNA extraction. For counting numbers of circulating tumor cells, TdTomato fluorescence was detected using a 561 nm laser and an YL1-A filter (585/16 emission filter). Acquisition and analysis of cells was performed using Attune N×T software.

The subject of the next data set is CML LSC. To be noted: recombinant IL-1RA; cited from earlier work.
The test system of another data set is hsCRP. Nature of the data set: Gevokizumab clinical hsCRP reduction in type 2 diabetes patients. The class given is in vivo, human. To be noted: top dose 0.3 mg/kg (~20 mg) Q4W. From the text:
FIG. 12. Clinical data after gevokizumab treatment (panel a) and its extrapolation to higher doses (panels b, c, and d). Adjusted percent change from baseline in hsCRP in patients in a). The hsCRP exposure-response relationship is shown in b) for six different hsCRP base line concentrations.

The nature of data set [4]: Gevokizumab clinical pharmacokinetics. As to conditions: subcutaneous administration. The class given is in vivo, human.
For another data set, the target named is mouse IL-1β (Mus musculus, UniProt P10749). As to the kind of experiment: Cross-reactivity with mouse IL-1β. The class given is binding.
Chain of mouse IL-1β (P10749 118-269): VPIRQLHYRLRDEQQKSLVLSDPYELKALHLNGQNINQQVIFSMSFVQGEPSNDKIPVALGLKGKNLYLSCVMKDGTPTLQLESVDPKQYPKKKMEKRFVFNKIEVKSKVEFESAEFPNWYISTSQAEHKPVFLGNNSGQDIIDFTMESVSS
For another data set, the system named is interleukin 6. As to conditions: 50, 150, 300 mg s.c. every 3 months, dose-dependent; median follow-up 3.7 years; cited from earlier work.
The subject of data set [5] is high-sensitivity C-reactive protein (hsCRP). As to conditions: 50, 150, 300 mg s.c. every 3 months, dose-dependent; median follow-up 3.7 years; cited from earlier work.

Take `CC(=O)O[C@@]12CO[C@@H]1C[C@H](O)[C@@]1(C)C(=O)[C@H](O)C3=C(C)[C@@H](OC(=O)[C@H](O)[C@@H](NC(=O)OC(C)(C)C)c4ccccc4)C[C@@](O)([C@@H](OC(=O)c4ccccc4)[C@H]21)C3(C)C` [docetaxel]: the “CD4+ and CD8+ T cells expressing TIM-3 vs control” value in the data set on 4T1 tumors [1] (4 days after a second dose) is “no change”. Also, in the data set with 4T1 tumors [1] (5 days after a single dose), the “granulocytic MDSC in 4T1 tumors” value is on record as “decrease”, the “monocytes in 4T1 tumors vs vehicle/isotype” value is “decrease”, the “monocytic MDSC in 4T1 tumors” value was “decrease” and the “neutrophils in 4T1 tumors” value is given as “decrease”. In addition, in the data set with 4T1 tumors [2], the “tumor growth vs vehicle/isotype control” value is recorded as “enhanced”. In the data set on LL2, the “efficacy (tumor growth)” value is reported as “modest efficacy”.

Take “IL-1Ra: recombinant IL-1 receptor antagonist (Anakinra)”: in the data set on bone vasculature, the “average length of CD34+ blood vessels in trabecular bone” value is on record as “reduced”, the “VEGF concentration (ELISA) vs control” value is listed as “reduced concentrations” and the “endothelin 1 concentration (ELISA) vs control” value is recorded as “reduced concentrations”. Besides, in data set [3], the “size of bone metastases vs control group” value is “smaller”, the “mice with metastasis detected in human bone implants” value is given as 4 out of 10 and the “tumor cells counted in whole blood” value was found to be 3 tumor cells/ml. In the data set with CML LSC, the “growth of CML LSC” value is “inhibited growth”.

As for “gevokizumab: high-affinity, humanized monoclonal antibody of the IgG2 isotype to interleukin-1β (SEQ ID NO:19 and 20)”, the “reduction of hsCRP” value with hsCRP is listed as “up to 45%”. In addition, the Bioavailability result in data set [4] is “about 56%”.

In the case of “canakinumab: high-affinity, fully human monoclonal antibody of the IgG1/k to interleukin-1β (SEQ ID NO:17 and 18)”, the “cross-reactivity with mouse IL-1β” value with mouse IL-1β is listed as “does not cross-react”. Moreover, in the data set on bone vasculature, the “average length of CD34+ blood vessels in trabecular bone” value is reported as “reduced”, the “VEGF concentration (ELISA) vs control” value is given as “reduced concentrations” and the “endothelin 1 concentration (ELISA) vs control” value is listed as “reduced concentrations”. Also, in data set [3], the “size of bone metastases vs control group” value is “smaller”, the “mice with metastasis detected in human bone implants” value was 1 out of 10 and the “tumor cells counted in whole blood” value is recorded as 3 tumor cells/ml. Moreover, the “reductions in concentrations of interleukin 6 compared with placebo” value with interleukin 6 is recorded as 25-43%. For the same compound, in data set [5], the “reductions in concentrations of hsCRP compared with placebo” value was 26-41%.

These data come from patent US20220025036A1, “USE OF IL-1BETA BINDING ANTIBODIES” (NOVARTIS AG, priority 2018, published 2022).
